The results in this text go back to CN106905199A, “一种基于聚集诱导发光原理用于选择性检测半胱氨酸的荧光试剂的合成及应用” (Gannan Normal University, priority 2017, dated 2017).

Assay [1] in a line: Selectivity test of TPENNO2: GSH. The note with it: 300 μM GSH, 37℃, 30 min, Ex=341 nm.
Assay [2] can be described thus: Selectivity test of TPENNO2: Hcy. Particulars: 300 μM Hcy, 37℃, 30 min, Ex=341 nm.
The nature of assay [3]: Selectivity test of TPENNO2: essential amino acids. Particulars: 25 μM TPENNO2 in PBS, 300 μM analyte, 37℃, 30 min, Ex=341 nm.
Assay [4] can be described thus: Response time of TPENNO2 to Cys (fluorescence vs incubation time). The note with it: 25 μM TPENNO2, PBS (50 mM, pH 7.4, 2.5% DMSO), 200 μM Cys, 37℃.
In assay [5] the test system is thiol compounds in HeLa cells [HeLa细胞内巯基化合物]. The experiment in a line: Fluorescence imaging of intracellular thiols in HeLa cells. Format: cell-based, human.
A short description of assay [6]: Reaction kinetics of TPENNO2 with the thiol of Cys.
Assay [7] is described as follows: Reaction kinetics of TPENNO2 with the thiol of GSH.

On to `O=[N+]([O-])c1ccc(S(=O)(=O)Nc2ccc(C(=C(c3ccccc3)c3ccccc3)c3ccccc3)cc2)c([N+](=O)[O-])c1` [TPENNO2], for which the “change of fluorescence intensity after reaction with GSH” value in assay [1] (25 μM TPENNO2 in PBS) was “没有明显增强”. Also, the “interference of GSH with Cys detection” value in assay [1] is “干扰均较小”. The “change of fluorescence intensity after reaction with Hcy” value in assay [2] (25 μM TPENNO2 in PBS) is reported as “没有明显增强”. Moreover, the “interference of Hcy with Cys detection” value in assay [2] was “干扰均较小”. In addition, the “change of fluorescence intensity after reaction with essential amino acids other than Cys” value in assay [3] is on record as “没有明显增强”. Also, in assay [4], the “incubation time after which fluorescence intensity is essentially saturated” value came out at 30 min. In assay [5] (4 μM TPENNO2, 20 min, no pretreatment, Ex 405 nm, 450-550 nm collected), the “fluorescence signal in HeLa cells” value is recorded as “绿色荧光信号”. Also, the “fluorescence signal in HeLa cells after Cys pretreatment” value in assay [5] (0.5 mM Cys 24 h, then 4 μM TPENNO2, 20 min) is recorded as “荧光信号增强”. For the same molecule, the “fluorescence signal in HeLa cells after NEM pretreatment” value in assay [5] (0.5 mM NEM (N-ethylmaleimide, thiol-consuming) 15 min, then 4 μM TPENNO2, 20 min) was “荧光信号减弱”. Besides, in assay [6], the “first-order reaction kinetic constant with the thiol of Cys” value was determined as 0.13 min⁻¹. Further, the “first-order reaction kinetic constant with the thiol of GSH” value in assay [7] was 0.0048 min⁻¹.
